System: NMDA-induced death
Experiment: NMDA test (25 mg/kg i.v.), prevention of NMDA-induced death (neuroprotective efficacy)
Assay type: in vivo, male NMRI mice
Details: Mus musculus, po, NMDA 25 mg/kg i.v.; for responders at 50 mg/kg: 50 mg/kg p.o. 1 h before test; for responders at 50 mg/kg / responders at 100 mg/kg / responders at 25 mg/kg / responders at 5 mg/kg: read-out: Protective action (percentage of surviving animals); for responders at 100 mg/kg: 100 mg/kg p.o. 1 h before test; for responders at 25 mg/kg: 25 mg/kg p.o. 1 h before test; for responders at 5 mg/kg: 5 mg/kg p.o. 1 h before test; for ED50: 1 h, dose protecting 50% of animals against NMDA-induced death one hour after application
Method: In order to determine the neuroprotective and anticonvulsive activity of the compounds in accordance with the invention of the general formula I, two slightly different methods were employed as follows: […]
1. In order to determine the neuroprotective efficacy NMDA at a rate of 25 mg/kg/10 ml was administered intravenously to male NMRI mice with a body weight of 20 to 25 g. As a consequence of this application the animals suffer clonic and partly tonic convulsions, which lead to death. As a criterion for the efficacy of the investigated compounds prevention of death is used.
All animals used in the investigations had free access to food and water prior to the experiments. The test and reference substances were all administered as a suspension in 0.2% agar or water, partly by the intermediary of solution promoters such as for instance PEG-400, perorally using an esophageal probe. Control animals received the same volumes of the solvent with optional solution promoters. One hour after the application of the substance NMDA was administered intravenously and the animals observed for the occurrence of convulsions.
In table 1 the results of the tests (NMDA 25 mg i.v.) performed in accordance with method 1 are compiled with dosages of 5-100 mg of the compounds in accordance with the invention per kg of body weight as compared with known NMDA-antagonists. As a percentage efficacy the percentage of surviving animals is used.
The determination of the ED50 values was performed in accordance with the method described in Lichtfield and Wilcoxon, J. Pharmacol. exp. Therapeut. 96, 99 (1949) in each case with 4 to 5 groups of 10 animals per dosage rate.

Structure (SMILES)	responders at 25 mg/kg [%]	responders at 5 mg/kg [%]	other results
COc1cc2oc(=O)ccc2cc1OCC(O)CN1CCN(c2cccc(C(F)(F)F)c2)CC1 (racemic) [Example 20, (±)-6-{2-hydroxy-3-[4-(3-trifluoromethylphenyl)-1-piperazinyl]propoxy}-7-methoxy-2H-1-benzopyran-2-one]			responders at 50 mg/kg: 87.5%
COc1cc2ccc(=O)oc2cc1OCC(O)CN1CCN(c2cccc(C(F)(F)F)c2)CC1 (racemic) [Example 21, (±)-7-{2-hydroxy-3-[4-(3-trifluoromethylphenyl)-1-piperazinyl]propoxy}-6-methoxy-2H-1-benzopyran-2-one]			responders at 50 mg/kg: 62.5%
COc1cc2oc(=O)ccc2cc1OCC(O)CN1CCC(c2ccccc2)CC1 (racemic) [Example 22, (±)-6-[2-hydroxy-3-(4-phenyl-1-piperidinyl)-propoxy]-7-methoxy-2H-1-benzopyran-2-one]			responders at 100 mg/kg: 37.5%
COc1cc2oc(=O)ccc2cc1OCC(O)CN1CCC(O)(c2ccccc2)CC1 (racemic) [Example 24, (±)-6-[2-hydroxy-3-(4-hydroxy-4-phenyl-1-piperidinyl)propoxy]-7-methoxy-2H-1-benzopyran-2-one]			responders at 100 mg/kg: 37.5%
COc1cc2oc(=O)ccc2cc1OCCCN1CCN(c2ccccc2)CC1 [Example 1, 7-methoxy-6-[3-(4-phenyl-1-piperazinyl)propoxy]-2H-1-benzopyran-2-one]	100		
COc1cc2ccc(=O)oc2cc1OCCCN1CCN(c2ccccc2)CC1 [Example 2, 6-methoxy-7-[3-(4-phenyl-1-piperazinyl)propoxy]-2H-1-benzopyran-2-one]	100		
CCOc1cc2oc(=O)ccc2cc1OCCCN1CCN(c2ccccc2)CC1 [Example 3, 7-ethoxy-6-[3-(4-phenyl-1-piperazinyl)propoxy]-2H-1-benzopyran-2-one]		62.5	
O=c1ccc2cc(OC3CCCC3)c(OCCCN3CCN(c4ccccc4)CC3)cc2o1 [Example 5, 6-(cyclopentyloxy)-7-[3-(4-phenyl-1-piperazinyl)propoxy]-2H-1-benzopyran-2-one]	87.5		
CCOc1cc2oc(=O)ccc2cc1OCCCN1CCN(c2ccccc2OC)CC1 [Example 7, 7-ethoxy-6-{3-[4-(2-methoxyphenyl)-1-piperazinyl]propoxy}-2H-1-benzopyran-2-one]		100	ED50: 0.9 mg/kg
COc1cc2oc(=O)ccc2cc1OCCCN1CCC(c2ccccc2)CC1 [Example 9, 7-methoxy-6-[3-(4-phenyl-1-piperidinyl)propoxy]-2H-1-benzopyran-2-one]	50		
CCOc1cc2ccc(=O)oc2cc1OCCCN1CCC(c2ccccc2)CC1 [Example 11, 6-ethoxy-7-[3-(4-phenyl-1-piperidinyl)propoxy]-2H-1-benzopyran-2-one]	62.5		
O=c1ccc2cc(OC3CCCC3)c(OCCCN3CCC(c4ccccc4)CC3)cc2o1 [Example 13, 6-(cyclopentyloxy)-7-[3-(4-phenyl-1-piperidinyl)propoxy]-2H-1-benzopyran-2-one]	100		
COc1cc2oc(=O)c(C)c(C)c2cc1OCCCN1CCC(c2ccccc2)CC1 [Example 29, 7-methoxy-3,4-dimethyl-6-[3-(4-phenyl-1-piperidinyl)propoxy]-2H-1-benzopyran-2-one]	87.5		
COc1cc2oc(=O)c(C)c(C)c2cc1OCCCN1CCN(Cc2ccc(Cl)cc2)CC1 [Example 30, 6-{3-[4-(4-chlorophenylmethyl)-1-piperazinyl]-propoxy}-7-methoxy-3,4-dimethyl-2H-1-benzopyran-2-one]			responders at 100 mg/kg: 37.5%
COc1cc2oc(=O)cc(C(F)(F)F)c2cc1OCCCN1CCN(c2ccccc2)CC1 [Example 31]	87.5		
COc1cc2oc(=O)cc(C(F)(F)F)c2cc1OCCCN1CCC(c2ccccc2)CC1 [Example 32, 7-methoxy-6-[3-(4-phenyl-1-piperidinyl)propoxy]-4-(trifluoromethyl)-2H-1-benzopyran-2-one]	62.5		
CCCc1cc(=O)oc2cc(OC)c(OCCCN3CCN(c4ccccc4)CC3)cc12 [Example 33]	100		ED50: 4.4 mg/kg

Structure (SMILES)	responders at 25 mg/kg [%]	responders at 5 mg/kg [%]	other results
CCCc1cc(=O)oc2cc(OC)c(OCCCN3CCC(c4ccccc4)CC3)cc12 [Example 34, 7-methoxy-6-[3-(4-phenyl-1-piperidinyl)propoxy]-4-propyl-2H-1-benzopyran-2-one]	75		
COc1cc2oc(=O)cc(C(C)C)c2cc1OCCCN1CCN(c2ccccc2)CC1 [Example 35, 7-methoxy-4-(1-methylethyl)-6-[3-(4-phenyl-1-piperazinyl)propoxy]-2H-1-benzopyran-2-one]		75	
COc1cc2oc(=O)cc(C(C)C)c2cc1OCCCN1CCC(c2ccccc2)CC1 [Example 36, 7-methoxy-4-(1-methylethyl)-6-[3-(4-phenyl-1-piperidinyl)propoxy]-2H-1-benzopyran-2-one]	50		
CCCCc1c(C)c2cc(OCCCN3CCN(c4ccccc4)CC3)c(OC)cc2oc1=O [Example 37, 3-butyl-7-methoxy-4-methyl-6-[3-(4-phenyl-1-piperazinyl)propoxy]-2H-1-benzopyran-2-one]	100		
CCCCc1c(C)c2cc(OCCCN3CCC(c4ccccc4)CC3)c(OC)cc2oc1=O [Example 38, 3-butyl-7-methoxy-4-methyl-6-[3-(4-phenyl-1-piperidinyl)propoxy]-2H-1-benzopyran-2-one]	87.5		
COc1cc2oc(=O)c(-c3ccccc3)c(C)c2cc1OCCCN1CCN(c2ccccc2)CC1 [Example 41, 7-methoxy-4-methyl-3-phenyl-6-[3-(4-phenyl-1-piperazinyl)propoxy]-2H-1-benzopyran-2-one]		87.5	ED50: 4.8 mg/kg
COc1cc2oc(=O)c3c(c2cc1OCCN1CCN(c2ccccc2)CC1)CCC3 [Example 44, 2,3-dihydro-7-methoxy-8-[2-(4-phenyl-1-piperazinyl)ethoxy]cyclopenta[c][1]benzopyran-4(1H)-one]	87.5		ED50: 4.8 mg/kg
COc1cc2oc(=O)c3c(c2cc1OCCCCCN1CCN(c2ccccc2)CC1)CCC3 [Example 47, 2,3-dihydro-7-methoxy-8-[5-(4-phenyl-1-piperazinyl)pentyloxy]cyclopenta[c][1]benzopyran-4(1H)-one]		62.5	
COc1cc2oc(=O)c3c(c2cc1OCCCCN1CCC(c2ccccc2)CC1)CCC3 [Example 50, 2,3-dihydro-7-methoxy-8-[4-(4-phenyl-1-piperidinyl)butyloxy]cyclopenta[c][1]benzopyran-4(1H)-one]	87.5		
COc1cc2oc(=O)c3c(c2cc1OCCCCCN1CCC(c2ccccc2)CC1)CCC3 [Example 51, 2,3-dihydro-7-methoxy-8-[5-(4-phenyl-1-piperidinyl)pentyloxy]cyclopenta[c][1]benzopyran-4(1H)-one]		12.5	
COc1cc2oc(=O)c3c(c2cc1OCCCN1CCN(c2cccc(C)c2C)CC1)CCC3 [Example 53, 8-{3-[4-(2,3-dimethylphenyl)-1-piperazinyl]propoxy}-2,3-dihydro-7-methoxy-cyclopenta[c][1]benzopyran-4(1H)-one]	50		
COc1cc2oc(=O)c3c(c2cc1OCCCN1CCN(c2ccccc2OC)CC1)CCC3 [Example 54, 2,3-dihydro-7-methoxy-8-{3-[4-(2-methoxyphenyl)-1-piperazinyl]propoxy}cyclopenta[c][1]benzopyran-4(1H)-one]		100	ED50: 0.4 mg/kg
COc1cccc(N2CCN(CCCOc3cc4c5c(c(=O)oc4cc3OC)CCC5)CC2)c1 [Example 55, 2,3-dihydro-7-methoxy-8-{3-[4-(3-methoxyphenyl)-1-piperazinyl]propoxy}cyclopenta[c][1]benzopyran-4(1H)-one]		100	ED50: 1.1 mg/kg
COc1ccc(N2CCN(CCCOc3cc4c5c(c(=O)oc4cc3OC)CCC5)CC2)cc1 [Example 56, 2,3-dihydro-7-methoxy-8-{3-[4-(4-methoxyphenyl)-1-piperazinyl]propoxy}cyclopenta[c][1]benzopyran-4(1H)-one]		87.5	ED50: 2.6 mg/kg
CCOc1ccccc1N1CCN(CCCOc2cc3c4c(c(=O)oc3cc2OC)CCC4)CC1 [Example 57, 8-{3-[4-(2-ethoxyphenyl)-1-piperazinyl]propoxy}-2,3-dihydro-7-methoxy-cyclopenta[c][1]benzopyran-4(1H)-one]		100	
COc1cc2oc(=O)c3c(c2cc1OCCCN1CCN(c2ccccc2Cl)CC1)CCC3 [Example 58, 8-{3-[4-(2-chlorophenyl)-1-piperazinyl]propoxy}-2,3-dihydro-7-methoxy-cyclopenta[c][1]benzopyran-4(1H)-one]		100	ED50: 1.8 mg/kg

From patent publication US5428038A, “Benzopyranones, a method for producing them and uses therefor” (Dr. Willmar Schwabe GmbH & Co., priority 1991, dated 1995)
